Experimental data as given in PubChem BioAssay (NCI).
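Five concentrations, 48 hours, 96-well plates. GI50 is the concentration that inhibits growth by half. TGI denotes the concentration required for complete inhibition of growth.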

Experiments:
Test in all cases: NCI tumour cell line growth inhibition, 48 h
[1] = system: 786-0 renal
[2] = system: CAKI-1 renal
[3] = system: IGROV1 ovarian
[4] = system: LOX IMVI melanoma
[5] = system: M14 melanoma
[6] = system: NCI/ADR-RES ovarian
[7] = system: OVCAR-8 ovarian
[8] = system: RPMI-8226 leukemia
[9] = system: SN12C renal
[10] = system: SR leukemia

SMILES	GI50 [1]	TGI [1]	GI50 [2]	TGI [2]	GI50 [3]	TGI [3]	GI50 [4]	TGI [4]	GI50 [5]	TGI [5]	GI50 [6]	TGI [6]	GI50 [7]	TGI [7]	GI50 [8]	TGI [8]	GI50 [9]	TGI [9]	GI50 [10]	TGI [10]
O=S(=O)(Nc1ccc(Br)cc1)c1ccc(-c2cnc(C3CC3)o2)cc1	5.34 µM	20.1 µM	1.07 µM	15.1 µM	2.57 µM	15.8 µM	2.41 µM	18 µM	1.41 µM	16.1 µM	1 µM	10.4 µM	4.16 µM	20.4 µM	2.62 µM	14.5 µM	4.41 µM	18.2 µM	0.349 µM	16.5 µM
CCN1C(=O)N(CC)C2C1NN=c1s/c(=C\c3ccc(Cl)cc3Cl)c(=O)n12 (centres undefined)	0.0509 µM	> 48.8 µM	0.0396 µM	25.7 µM	0.0437 µM	> 44.4 µM	0.0329 µM	> 35.1 µM	0.0304 µM	–	0.0301 µM	> 32 µM	0.0368 µM	36.6 µM	0.0391 µM	7.25 µM	0.0482 µM	> 53.4 µM	0.0319 µM	> 24.8 µM
O=[N+]([O-])c1ccccc1N=Nc1c(O)[nH]c2cccc(C(F)(F)F)c12	–	60 µM	–	> 100 µM	–	57.7 µM	–	> 100 µM	–	> 100 µM	–	> 100 µM	–	> 100 µM	–	> 100 µM	–	73.8 µM	–	15.7 µM
Cc1c2cnccc2c(C)c2c1c1cc(C#N)ccc1n2C	0.235 µM	1.3 µM	0.0929 µM	1.34 µM	0.14 µM	1.1 µM	0.115 µM	0.615 µM	0.232 µM	0.654 µM	0.117 µM	0.736 µM	0.103 µM	1.96 µM	0.202 µM	0.907 µM	0.149 µM	1.14 µM	0.0588 µM	3.06 µM
CC(=O)c1c(C(F)(F)F)n([O-])c2ccccc2[n+]1=O	2.86 µM	15.3 µM	1.21 µM	3.8 µM	1.02 µM	3.78 µM	1.31 µM	4.58 µM	1.63 µM	7.47 µM	1.49 µM	2.93 µM	2.96 µM	> 100 µM	0.572 µM	3.62 µM	1.07 µM	3.17 µM	0.167 µM	2.3 µM
O=C(c1ccc2ccccc2c1)c1c(C(F)(F)F)n([O-])c2ccc(C(F)(F)F)cc2[n+]1=O	1.29 µM	2.68 µM	0.28 µM	0.73 µM	0.27 µM	0.815 µM	0.191 µM	0.363 µM	1.54 µM	2.95 µM	1.7 µM	4.75 µM	0.727 µM	2.45 µM	0.864 µM	2.88 µM	1.39 µM	3.3 µM	0.174 µM	0.478 µM
CCSC1=NC2C(N(CC)C(=O)N2CC)N1/N=C/C=C/c1ccccc1[N+](=O)[O-] (centres undefined)	0.405 µM	> 100 µM	0.0647 µM	> 100 µM	0.246 µM	> 100 µM	0.126 µM	> 100 µM	0.184 µM	> 100 µM	0.209 µM	> 100 µM	0.385 µM	> 100 µM	0.334 µM	> 34.1 µM	0.401 µM	> 100 µM	0.0895 µM	> 48 µM
